Holding throughout (assay): DTP human tumour cell line panel, 48 h
Test [1] has as its system SN12C renal.
Test [2] deals with UACC-62 melanoma.
The subject of test [3] is NCI/ADR-RES ovarian.
Test [4] has as its system U251 CNS.
Test [5] relates to NCI-H226 lung.
Test [6] concerns HT29 colon.
Test [7] relates to BT-549 breast.
The test system of test [8] is RXF 393 renal.
The subject of test [9] is DLD-1 colon.
In test [10] the test system is M19-MEL melanoma.
Test [11] concerns KM20L2 colon.
Test [12] concerns DMS 273 small cell lung.

SMILES strings stand for the structures.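 A five-concentration, 48-hour dose response in 96-well plates underlies each endpoint, interpolated linearly between surrounding concentrations. TGI: total growth inhibition.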

Usually TGI stands for the concentration giving total growth inhibition. Lower therefore signals greater sensitivity of the cells.

In the case of `Cc1ccc(S(=O)(=Nc2ccccc2)C(C(C)C)C(C)(C)Cl)cc1` (centres undefined), the total growth inhibition concentration (TGI) was over 50 µM in [1]; over 50 µM in test [2]; over 50 µM in test [3]; over 50 µM in test [4]; 45.9 µM in test [5]; over 50 µM in test [6]. In addition, the total growth inhibition concentration (TGI) in [7] and in test [8] was over 50 µM in each case.
Take `CC(=O)c1ccc(NC(=O)/C(=N\NC(N)=O)C(C#N)CC(C)(C)C=O)cc1` (centres undefined): the concentration for total growth inhibition (TGI) in [9], in test [1], in [2], in test [4], in test [5] and in test [10] was over 100 µM each time. Further, the concentration for total growth inhibition (TGI) in [6], in test [11], in [12] and in [8] was over 100 µM in each case.
As to `O=C(c1ccc(Cl)cc1)N(Cc1cccnc1)C(=S)N(Cc1cccnc1)C(=O)c1ccc(Cl)cc1`, the concentration for total growth inhibition (TGI) was 48.1 µM in test [1]; over 100 µM in test [2]; over 100 µM in test [3]; 53.6 µM in [4]; over 100 µM in test [5]; 76.9 µM in test [6]. In addition, the figures for the total growth inhibition concentration (TGI) in [7] and in test [8] were 51 µM and over 100 µM, respectively.
As to `Cc1cc(S(=O)(=O)O)ccc1N=Nc1ccc(N=Nc2c(O)ccc3ccccc23)c(C)c1`, the TGI in [1], in test [2], in test [3], in [4], in [5] and in test [6] was over 100 µM throughout. Further, the TGI in test [7] and in [8] was over 100 µM throughout.
Regarding `O=C(CCc1cc(O)cc(O)c1)NCCc1ccc(O)c(O)c1`, the total growth inhibition concentration (TGI) in test [1], in test [2], in test [3], in test [4], in test [5] and in test [6] was over 100 µM each time. For the same compound, the TGI in test [7] and in test [8] was over 100 µM in each case.
Turning to `O=C(c1ccc(Cl)cc1)N(C(=S)N1CCN(c2ccccn2)CC1)c1ccccc1`, the TGI in [9], in [1], in [2], in [4], in test [5] and in [10] was over 100 µM in each case. For the same compound, the TGI in test [6], in [11], in test [12] and in test [8] was over 100 µM in each case.
As to `CC(NC(=O)C(C)C(=O)NCc1ccc(C(F)(F)F)cc1)C(N)=O` (centres undefined), the TGI in test [1], in [2], in test [3], in test [4], in test [5] and in test [6] was over 100 µM throughout. Besides, the TGI in test [7] and in [8] was over 100 µM in each case.
With `Cc1cccc2c(N)c3cccc(C(=O)NCC[N+](C)(C)Cc4sc(N5CCOCC5)nc4[N+](=O)[O-])c3nc12`, the total growth inhibition concentration (TGI) in [1] was over 100 µM; in test [2], 18.6 µM; in test [3] it was 23.3 µM; in test [4], over 100 µM; in [5], 17.4 µM; in test [6] it was 2.74 µM. Also, the results for the total growth inhibition concentration (TGI) in test [7] and in test [8] were 40.8 µM and 20.8 µM, respectively.
In the case of `O=C1C=CC2(O[C@@H](Cc3ccccc3)[C@H](Cc3ccccc3)O2)C(SC(=O)c2ccccc2)C1` (some centres undefined), the TGI in test [1] is 3.97 µM; in [2], 5.04 µM; in test [3], 4.06 µM; in [4] it was 2.56 µM; in [5], 3.2 µM; in test [6], 3.08 µM. Besides, the figures for the concentration for total growth inhibition (TGI) in [7] and in [8] were 1.11 µM and 0.325 µM, respectively.
Regarding `c1ccc(C(CCN2CCCC2)c2ccccn2)cc1` (centres undefined), the TGI in test [1], in [2], in [3], in [4], in test [5] and in [6] was over 100 µM each time. The TGI in [7] and in test [8] was over 100 µM throughout.
In the case of `Clc1ccc(OCC2NC3C=CC32)cn1` (centres undefined), the TGI in test [1], in test [2], in test [3], in test [4], in test [5] and in test [6] was over 100 µM throughout. Besides, the total growth inhibition concentration (TGI) in test [7] and in [8] was over 100 µM throughout.
Regarding `O=c1c2c([nH]c3cc4c(cc13)OCO4)-c1ccccc1CCC2`, the TGI in test [1], in test [2], in [3], in test [4], in [5] and in [6] was over 50 µM in each case. For the same compound, the concentration for total growth inhibition (TGI) in test [7] and in test [8] was over 50 µM each time.
Take `CC(O)(c1ccccc1)c1nccc2ccccc12` (centres undefined): the TGI in test [1], in test [2], in test [3], in test [4], in test [5] and in test [6] was over 100 µM throughout. Moreover, the TGI in test [7] and in test [8] was over 100 µM throughout.
Turning to `Cc1ccccc1NC(=S)N/N=C(/c1ccccc1)c1ccccn1`, the TGI in test [1] was found to be 10 µM; in test [2] it was 17.1 µM; in [3], 15.2 µM; in test [4], 12.1 µM; in test [5], 1.66 µM; in test [6] it was 15.8 µM. The TGI in [7] stood at 18.5 µM; in test [8], 12.3 µM.
Consider `O=C1c2ccccc2C(=O)N1C(=S)c1ccccc1`, for which the concentration for total growth inhibition (TGI) in test [1], in test [2], in [3], in [4], in test [5] and in test [6] was over 100 µM in each case. The total growth inhibition concentration (TGI) in test [7] and in [8] was over 100 µM throughout.

These data come from PubChem BioAssay (NCI).
